Measurements reported in patent publication US20240382629A1, “HETEROBIVALENT AND HOMOBIVALENT AGENTS TARGETING FIBROBLAST ACTIVATION PROTEIN ALPHA AND/OR PROSTATE-SPECIFIC MEMBRANE ANTIGEN” (The Johns Hopkins University, priority 2021, published 2024).
Like-named read-outs stand apart in the source and are kept apart here.

How the values were obtained:
Type in all cases: biochemical
FAP = FAP (Homo sapiens (Human), UniProt Q12884); assay: FAP inhibition assay (recombinant enzyme, Z-Gly-Pro-AMC substrate); conditions: Table 3; for Ki: read-out: FAP Ki
Procedure: (§1) PSMA binding affinities of the compounds were determined using a competitive inhibition assay as previously reported. […] FAP, prolyl endopeptidase (PREP), and […] (DPPIV) inhibition assays: Recombinant enzymes (FAP, PREP, DPPIV) were purchased from R&D Systems (Minneapolis, MN). […] Z-Gly-Pro-AMC was used as a substrate for FAP and PREP. H-Gly-Pro-AMC was used as a substrate for DPPIV. The recombinant enzyme (0.4 μg/mL) was incubated with varying amounts of the test articles in the presence of the designated substrate (80 μM) for 10 min at room temperature. Fluorescence intensity was measured with 380 nm excitation and 460 nm emission using the Cytation 5 Cell Imaging Multi-Mode Reader (BioTek, Winooski, VT). IC50 and Ki values were obtained using a sigmoidal dose-response function.

DPPIV = DPPIV (Homo sapiens (Human), UniProt P27487); assay: DPPIV inhibition assay (recombinant enzyme, H-Gly-Pro-AMC substrate)
Procedure: as §1

PREP = PREP (Homo sapiens (Human), UniProt P48147); assay: PREP inhibition assay (recombinant enzyme, Z-Gly-Pro-AMC substrate); conditions: Table 3
Procedure: as §1

PREP, sequence (P48147 whole entry): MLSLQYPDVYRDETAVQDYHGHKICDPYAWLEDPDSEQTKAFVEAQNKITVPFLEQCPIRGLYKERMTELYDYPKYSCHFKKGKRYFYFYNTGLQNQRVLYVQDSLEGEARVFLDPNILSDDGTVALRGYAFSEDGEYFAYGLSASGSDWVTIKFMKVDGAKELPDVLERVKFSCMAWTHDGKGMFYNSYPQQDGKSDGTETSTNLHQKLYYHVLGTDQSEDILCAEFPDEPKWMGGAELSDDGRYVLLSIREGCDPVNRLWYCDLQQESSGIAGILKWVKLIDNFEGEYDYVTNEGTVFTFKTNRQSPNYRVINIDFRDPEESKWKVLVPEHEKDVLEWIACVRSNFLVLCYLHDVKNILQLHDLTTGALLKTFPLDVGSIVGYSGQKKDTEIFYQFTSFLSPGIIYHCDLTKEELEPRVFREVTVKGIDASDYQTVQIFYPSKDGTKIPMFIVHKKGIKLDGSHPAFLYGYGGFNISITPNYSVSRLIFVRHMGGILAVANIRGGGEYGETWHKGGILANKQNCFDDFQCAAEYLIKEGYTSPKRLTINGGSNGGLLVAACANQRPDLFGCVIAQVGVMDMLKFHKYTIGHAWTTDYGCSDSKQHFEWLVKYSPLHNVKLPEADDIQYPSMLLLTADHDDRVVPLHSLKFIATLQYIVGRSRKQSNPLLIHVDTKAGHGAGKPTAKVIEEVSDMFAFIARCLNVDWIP
FAP, sequence (Q12884 whole entry): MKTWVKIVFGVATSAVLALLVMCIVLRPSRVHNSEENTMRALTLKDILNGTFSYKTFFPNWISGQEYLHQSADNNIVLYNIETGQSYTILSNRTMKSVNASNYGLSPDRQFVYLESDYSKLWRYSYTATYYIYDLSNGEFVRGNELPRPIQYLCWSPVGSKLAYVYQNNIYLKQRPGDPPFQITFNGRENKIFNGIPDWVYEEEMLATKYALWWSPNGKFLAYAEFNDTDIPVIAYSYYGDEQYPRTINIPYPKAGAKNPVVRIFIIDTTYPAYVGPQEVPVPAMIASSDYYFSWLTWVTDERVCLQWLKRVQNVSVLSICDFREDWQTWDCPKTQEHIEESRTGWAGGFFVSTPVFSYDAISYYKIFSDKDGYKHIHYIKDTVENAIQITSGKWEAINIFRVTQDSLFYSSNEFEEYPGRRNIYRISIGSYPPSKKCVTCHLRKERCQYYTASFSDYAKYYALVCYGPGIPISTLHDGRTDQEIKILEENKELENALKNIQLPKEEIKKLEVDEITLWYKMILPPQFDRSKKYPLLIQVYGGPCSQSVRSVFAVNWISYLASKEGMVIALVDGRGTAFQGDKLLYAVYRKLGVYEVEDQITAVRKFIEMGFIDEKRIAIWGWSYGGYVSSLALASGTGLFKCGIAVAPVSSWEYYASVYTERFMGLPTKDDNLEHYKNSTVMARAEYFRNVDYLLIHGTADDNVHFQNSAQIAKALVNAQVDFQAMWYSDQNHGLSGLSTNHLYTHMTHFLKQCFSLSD
DPPIV, sequence (P27487 whole entry): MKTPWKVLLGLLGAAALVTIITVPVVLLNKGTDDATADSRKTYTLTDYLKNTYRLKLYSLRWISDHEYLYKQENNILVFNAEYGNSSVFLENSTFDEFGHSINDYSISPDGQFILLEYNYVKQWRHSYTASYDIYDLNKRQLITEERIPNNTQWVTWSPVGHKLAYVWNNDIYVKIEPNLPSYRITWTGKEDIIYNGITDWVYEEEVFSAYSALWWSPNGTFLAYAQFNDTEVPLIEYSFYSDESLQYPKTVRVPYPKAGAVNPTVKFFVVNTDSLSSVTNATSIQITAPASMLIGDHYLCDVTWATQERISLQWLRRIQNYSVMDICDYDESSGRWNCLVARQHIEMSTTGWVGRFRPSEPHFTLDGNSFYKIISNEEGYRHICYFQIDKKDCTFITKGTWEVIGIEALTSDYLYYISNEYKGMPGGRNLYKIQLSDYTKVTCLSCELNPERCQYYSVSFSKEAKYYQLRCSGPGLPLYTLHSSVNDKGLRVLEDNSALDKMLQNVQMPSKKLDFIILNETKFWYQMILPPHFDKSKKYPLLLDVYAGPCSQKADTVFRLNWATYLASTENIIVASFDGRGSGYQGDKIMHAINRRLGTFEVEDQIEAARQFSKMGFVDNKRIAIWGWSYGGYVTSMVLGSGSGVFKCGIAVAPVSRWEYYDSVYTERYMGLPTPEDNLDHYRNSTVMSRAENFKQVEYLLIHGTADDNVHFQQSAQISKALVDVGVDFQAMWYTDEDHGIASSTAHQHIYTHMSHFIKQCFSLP

| IC50 (FAP) | Ki (FAP) | IC50 (DPPIV; Table 3, read-out: DPPIV IC50) | IC50 (PREP) | Structure (SMILES) | IC50 (DPPIV) |
| --- | --- | --- | --- | --- | --- |
| 0.000912 µM | 0.182 nM | > 20 µM | 0.0958 µM | N#C[C@@H]1CCCN1C(=O)CNC(=O)c1ccnc2cccc(F)c12 [JHU1219438] |  |
| 0.00031 µM | 0.062 nM | 3.5 µM | 0.047 µM | N#C[C@@H]1CC(F)(F)CN1C(=O)CNC(=O)c1ccnc2ccc(F)cc12 [JHU1220466] |  |
| 0.000734 µM | 0.147 nM | 2.53 µM | 0.0115 µM | N#C[C@@H]1C[C@H](F)CN1C(=O)CNC(=O)c1ccnc2ccc(F)cc12 [JHU1220471] |  |
| 0.00216 µM | 0.433 nM | > 20 µM | 0.522 µM | N#C[C@@H]1CCCN1C(=O)CNC(=O)c1ccnc2cc(F)ccc12 [JHU1220501] |  |
| 0.00504 µM | 1.01 nM | > 20 µM | 0.0845 µM | N#C[C@@H]1CCCN1C(=O)CNC(=O)c1ccnc2c(F)cccc12 [JHU1220502] |  |
| 0.223 µM | 44.6 nM | > 20 µM | 0.688 µM | N#C[C@@H]1CCCN1C(=O)CNC(=O)c1c(F)cnc2ccccc12 [JHU1220503] |  |
| 0.00141 µM | 0.28 nM | 836 µM | > 2000 µM | N#C[C@@H]1CCCN1C(=O)CNC(=O)c1ccnc2ccc(OCCCN(Cc3ccc(I)cc3)C(=O)CN3CCN(CC(=O)O)CCN(CC(=O)O)CCN(CC(=O)O)CC3)cc12 [JHU1220627] |  |
| 0.00119 µM | 0.24 nM | 7.91 µM | 6.91 µM | N#C[C@@H]1CCCN1C(=O)CNC(=O)c1ccnc2ccc(OCCCNC(=O)[C@@H](CC(=O)O)NC(=O)[C@@H](CC(=O)O)NC(=O)c3cccc(F)n3)cc12 [JHU1221708] |  |
| 0.00209 µM | 0.42 nM | 12.6 µM | 21.9 µM | N#C[C@@H]1CCCN1C(=O)CNC(=O)c1ccnc2ccc(OCCCN(Cc3ccc(F)nc3)C(=O)CN3CCN(CC(=O)O)CCN(CC(=O)O)CCN(CC(=O)O)CC3)cc12 [JHU1221709] |  |
| 0.00131 µM | 0.26 nM | 17.7 µM | 86.6 µM | N#C[C@@H]1CCCN1C(=O)CNC(=O)c1ccnc2ccc(OCCCNC(=O)[C@@H](CC(=O)O)NC(=O)[C@@H](CC(=O)O)NC(=O)c3ccc(F)nc3)cc12 [JHU1221785] |  |
| 0.0014 µM | 0.28 nM | 6.22 µM | 1.09 µM | N#C[C@@H]1CCCN1C(=O)CNC(=O)c1ccnc2ccc(OCCOCCNC(=O)[C@H](CCCCNC(=O)c3ccc(F)nc3)NC(=O)CN3CCN(CC(=O)O)CCN(CC(=O)O)CCN(CC(=O)O)CC3)cc12 [JHU1221803] |  |
| 0.00048 µM | 0.1 nM | 2.05 µM | 0.63 µM | N#CC1CCCN1C(=O)CNC(=O)c1ccnc2ccc(OCCCNC(=O)CCc3cn(CCCC[C@H](NC(=O)CN4CCN(CC(=O)O)CCN(CC(=O)O)CC4)C(=O)NCCCOc4ccc5nccc(C(=O)NCC(=O)N6CCC[C@H]6C#N)c5c4)nn3)cc12 (stereo partly drawn) [SB-FAP-09] |  |

| Structure (SMILES) | IC50 (FAP) | Ki (FAP) | IC50 (DPPIV; Table 3, read-out: DPPIV IC50) | IC50 (PREP) | IC50 (DPPIV) |
| --- | --- | --- | --- | --- | --- |
| N#C[C@@H]1CCCN1C(=O)CNC(=O)c1ccnc2ccc(OCCF)cc12 [JHU1220470] | 0.000343 µM | 0.0686 nM |  | 1.41 µM | > 20 µM |
| N#C[C@@H]1CCCN1C(=O)CNC(=O)c1ccnc2ccc(OCCCNC(=O)CNC(=O)[C@H](CCCCNC(=O)c3ccc(F)nc3)NC(=O)CN3CCN(CC(=O)O)CCN(CC(=O)O)CCN(CC(=O)O)CC3)cc12 [JHU1221804] | 0.00101 µM | 0.2 nM | 8.31 µM | 1.71 µM |  |
| N#C[C@@H]1CCCN1C(=O)CNC(=O)c1ccnc2ccc(OCCCNC(=O)CCOCCOCCOCCOCCNC(=O)[C@H](CCCCNC(=O)c3ccc(F)nc3)NC(=O)CN3CCN(CC(=O)O)CCN(CC(=O)O)CCN(CC(=O)O)CC3)cc12 [JHU1221823] | 0.00059 µM | 0.12 nM | 7.47 µM | 0.24 µM |  |
